Assay results published in patent US7387800B2, “Sesquiterpenoid derivatives having adipocyte differentiation inhibitory effect” (Meiji Dairies Corporation, priority 2001, dated 2008).

System: Mouse adipocyte precursors (3T3-L1)
Assay: Inhibition of insulin-induced adipocyte differentiation, acetic acid (14C-CH3COOH) incorporation activity as index
Type: cell-based
Conditions: 3T3-L1 differentiation into adipocytes; compound added with insulin; FIG. 4
Method: Whether Calea extract solution has an inhibitory activity on adipocyte differentiation induced by the addition of insulin was investigated. First, the aerial portion of Calea (170 g) was ground, and extracted by heated reflux using acetone (24 hours×2 times) to produce Calea extract solution. The extracted solution was filtered, and then concentrated under reduced pressure to yield a concentrated extract. Mouse adipocyte precursors (3T3-L1) obtained from Human Science Research Resources Bank was used as the adipocyte in the present experiment. Normal successive cultivation was performed using Dulbecco's modified Eagle MEM medium containing 10% calf serum (CS) at 37° C. in the presence of 5% CO2. […]
In the system where acetic acid incorporation activity was used as an index, first the cells were placed into a 24-well plate at a density of 4.2×10^4 cell/well. […] Using a liquid scintillation counter, radioactivity of the isopropanol fraction (adipose component) was measured. […] Then, protein quantification was performed according to the Bradford dye-binding method. […]

Structure (SMILES)	incorporation inhibitory activity (acetic acid incorporation), result in words
C=C(C)C(=O)O[C@H]1[C@H]2C(=C)C(=O)O[C@@H]2C[C@@H](C)[C@@H]2O[C@@H]2C(=O)[C@@](C)(O)[C@@H]1OC(=O)C(=C)C [compound 6]	high incorporation inhibitory activity
C=C(C)C(=O)O[C@H]1[C@H]2C(=C)C(=O)O[C@@H]2C[C@@H](C)/C=C\C(=O)[C@@](C)(O)[C@@H]1OC(=O)C(=C)C [compound 11]	high incorporation inhibitory activity
